Measurements from patent US20230183193A1, “4-DIFLUOROMETHYL BENZOYL AMIDES WITH HERBICIDAL ACTION” (BAYER CROPSCIENCE AKTIENGESELLSCHAFT, priority 2017, published 2023).

Legend:
[1] = tested on: Stellaria media; test: Pre-emergence herbicidal action, STEME; type: in vivo; conditions: dosage 320 g/ha, scored visually after 3 weeks vs untreated controls
How it was run: (§1)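 Weed seeds were laid out in sandy loam and covered with soil, then the soil surface was treated with an aqueous suspension or emulsion of the formulated compound containing 0.2% wetting agent. Pots stayed in the greenhouse for 3 weeks before damage was rated visually against untreated plants.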

[2] = tested on: ECHCG; test: Post-emergence herbicidal action, ECHCG; type: in vivo; conditions: 80 g/ha, Table C
How it was run: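 Weed and crop plants grown in sandy loam in the greenhouse, treated at the one-leaf stage 2–3 weeks after sowing. Damage scored visually after about 3 weeks vs untreated controls (0% = control, 100% = dead).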

[3] = tested on: ECHCG; test: Pre-emergence herbicidal action, ECHCG; type: in vivo, Echinochloa crus-galli
[4] = tested on: Avena fatua; test: Post-emergence herbicidal action, AVEFA; type: in vivo; conditions: for herbicidal activity AVEFA: Table C
How it was run: (§2)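 Visual percent activity relative to untreated controls, assessed about 3 weeks after foliar treatment, where 0% equals control growth and 100% equals death. Compounds, as wettable powders or emulsion concentrates, are sprayed onto one-leaf-stage plants in sandy loam.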

[5] = tested on: Amaranthus retroflexus; test: Pre-emergence herbicidal action, AMARE; type: in vivo; conditions: dosage 320 g/ha, scored visually after 3 weeks vs untreated controls
How it was run: as §1

[6] = tested on: Viola tricolor; test: Pre-emergence herbicidal action, VIOTR; type: in vivo; conditions: for Herbicidal efficacy against VIOTR: Table K; for herbicidal activity VIOTR: scored visually after 3 weeks vs untreated controls
How it was run: as §1

[7] = tested on: Cyperus serotinus; test: Pre-emergence herbicidal action, CYPES; type: in vivo; conditions: for herbicidal activity CYPES: dosage 320 g/ha, scored visually after 3 weeks vs untreated controls
How it was run: as §1

[8] = tested on: Amaranthus retroflexus; test: Post-emergence herbicidal action, AMARE; type: in vivo; conditions: 80 g/ha, Table D
How it was run: as §2

[9] = tested on: Alopecurus myosuroides; test: Post-emergence herbicidal action, ALOMY; type: in vivo
How it was run: as §2

[10] = tested on: Pharbitis purpureum; test: Post-emergence herbicidal action, PHBPU; type: in vivo; conditions: 80 g/ha, Table D
How it was run: as §2

[11] = tested on: Abutilon theophrasti; test: Pre-emergence herbicidal action, ABUTH; type: in vivo; conditions: for Herbicidal efficacy against ABUTH: Table K; for herbicidal activity ABUTH: scored visually after 3 weeks vs untreated controls
How it was run: as §1

[12] = tested on: Viola tricolor; test: Post-emergence herbicidal action, VIOTR; type: in vivo; conditions: for herbicidal activity VIOTR: Table D
How it was run: as §2

[13] = tested on: Stellaria media; test: Post-emergence herbicidal action, STEME; type: in vivo; conditions: for Herbicidal activity STEME: Table D
How it was run: as §2

[14] = tested on: Avena fatua; test: Pre-emergence herbicidal action, AVEFA; type: in vivo; conditions: for herbicidal activity AVEFA: dosage 320 g/ha, scored visually after 3 weeks vs untreated controls
How it was run: as §1

[15] = tested on: Setaria viridis; test: Post-emergence herbicidal action, SETVI; type: in vivo; conditions: for herbicidal activity SETVI: Table C
How it was run: as §2

[16] = tested on: Polygonum convolvulus; test: Pre-emergence herbicidal action, POLCO; type: in vivo; conditions: Table K
From the text: 1. Pre-Emergence Herbicidal Action Against Harmful Plants Seeds of monocotyledonous and dicotyledonous weed plants and crop plants are laid out in sandy loam soil in wood-fiber pots and covered with soil. The compounds of the invention, formulated in the form of wettable powders (WP) or as emulsion concentrates (EC), are then applied to the surface of the covering soil in the form of an aqueous suspension or emulsion at a water application rate equating to […], with addition of 0.2% wetting agent. After the treatment, the pots are placed in a greenhouse and kept under good growth conditions for the trial plants. The damage to the test plants is scored visually after a test period of 3 weeks by comparison with untreated controls (herbicidal activity in percent (%): 100% activity=the plants have died, 0% activity=like control plants).
For comparison, the herbicidal activity of numerous compounds according to the invention was tested with the structurally closest compounds known from the documents WO 2011/035874, WO 2012/028579 and WO 2012/126932, by the pre- and post-emergence method.

[17] = tested on: Abutilon theophrasti; test: Post-emergence herbicidal action, ABUTH; type: in vivo; conditions: 80 g/ha, Table D
How it was run: as §2

[18] = tested on: Matricaria inodora; test: Pre-emergence herbicidal action, MATIN; type: in vivo; conditions: for Herbicidal efficacy against MATIN: Table K; for herbicidal activity MATIN: scored visually after 3 weeks vs untreated controls
How it was run: as §1

[19] = tested on: Alopecurus myosuroides; test: Pre-emergence herbicidal action, ALOMY; type: in vivo; conditions: for herbicidal activity ALOMY: dosage 320 g/ha, scored visually after 3 weeks vs untreated controls
How it was run: as §1

[20] = tested on: Setaria viridis; test: Pre-emergence herbicidal action, SETVI; type: in vivo; conditions: for herbicidal activity SETVI: dosage 320 g/ha, scored visually after 3 weeks vs untreated controls
How it was run: as §1

Structure (SMILES): Cc1c(C(=O)Nc2ncnn2C)ccc(C(F)F)c1S(C)(=O)=O [Example 4-3]
- Herbicidal activity STEME [1]: 100%
- Herbicidal activity ECHCG [2]: 100%
- Herbicidal efficacy against ECHCG ([3]; 80 g/ha): 100
- Herbicidal efficacy against ECHCG ([3]; 320 g/ha): 100
- Herbicidal efficacy against AVEFA ([4]; 20 g/ha): 50
- herbicidal activity AVEFA ([4]; 80 g/ha): 90%
- herbicidal activity AMARE [5]: 100%
- Herbicidal efficacy against VIOTR ([6]; dosage 80 g/ha): 100
- Herbicidal efficacy against VIOTR ([6]; dosage 320 g/ha): 100
- herbicidal activity VIOTR ([6]; dosage 320 g/ha): 100%
- Herbicidal efficacy against CYPES ([7]; 80 g/ha): 100
- Herbicidal efficacy against CYPES ([7]; 320 g/ha): 100
- herbicidal activity CYPES [7]: 100%
- herbicidal activity AMARE [8]: 100%
- Herbicidal efficacy against ALOMY ([9]; 20 g/ha): 30
- Herbicidal activity PHBPU [10]: 100%
- Herbicidal efficacy against ABUTH ([11]; dosage 80 g/ha): 100
- Herbicidal efficacy against ABUTH ([11]; dosage 320 g/ha): 100
- herbicidal activity ABUTH ([11]; dosage 320 g/ha): 100%
- Herbicidal efficacy against VIOTR ([12]; 20 g/ha): 100
- herbicidal activity VIOTR ([12]; 80 g/ha): 100%
- Herbicidal efficacy against STEME ([13]; 20 g/ha): 60
- Herbicidal activity STEME ([13]; 80 g/ha): 90%
- Herbicidal efficacy against AVEFA ([14]; 80 g/ha): 30
- Herbicidal efficacy against AVEFA ([14]; 320 g/ha): 80
- herbicidal activity AVEFA [14]: 80%
- Herbicidal efficacy against SETVI ([15]; 20 g/ha): 40
- herbicidal activity SETVI ([15]; 80 g/ha): 100%
- Herbicidal efficacy against POLCO ([16]; dosage 80 g/ha): 40
- Herbicidal efficacy against POLCO ([16]; dosage 320 g/ha): 70
- herbicidal activity ABUTH [17]: 100%
- Herbicidal efficacy against MATIN ([18]; dosage 80 g/ha): 100
- Herbicidal efficacy against MATIN ([18]; dosage 320 g/ha): 100
- herbicidal activity MATIN ([18]; dosage 320 g/ha): 100%
- Herbicidal efficacy against ALOMY ([19]; 80 g/ha): 60
- Herbicidal efficacy against ALOMY ([19]; 320 g/ha): 90
- herbicidal activity ALOMY [19]: 90%
- Herbicidal efficacy against SETVI ([20]; 80 g/ha): 90
- Herbicidal efficacy against SETVI ([20]; 320 g/ha): 100
- herbicidal activity SETVI [20]: 100%

Structure (SMILES): Cc1c(C(=O)Nc2nnnn2C)ccc(C(F)F)c1S(C)(=O)=O [Example 1-3]
- Herbicidal activity STEME [1]: 100%
- Herbicidal activity ECHCG [2]: 90%
- Herbicidal efficacy against ECHCG ([3]; 20 g/ha): 90
- Herbicidal efficacy against ECHCG ([3]; 80 g/ha): 100
- Herbicidal efficacy against ECHCG ([3]; 320 g/ha): 100
- Herbicidal efficacy against AVEFA ([4]; 5 g/ha): 70
- Herbicidal efficacy against AVEFA ([4]; 80 g/ha): 100
- herbicidal activity AVEFA ([4]; 80 g/ha): 100%
- herbicidal activity AMARE [5]: 100%
- Herbicidal efficacy against VIOTR ([6]; dosage 20 g/ha): 100
- Herbicidal efficacy against VIOTR ([6]; dosage 80 g/ha): 100
- Herbicidal efficacy against VIOTR ([6]; dosage 320 g/ha): 100
- herbicidal activity VIOTR ([6]; dosage 320 g/ha): 100%
- Herbicidal efficacy against CYPES ([7]; 20 g/ha): 30
- Herbicidal efficacy against CYPES ([7]; 80 g/ha): 90
- Herbicidal efficacy against CYPES ([7]; 320 g/ha): 90
- herbicidal activity CYPES [7]: 90%
- Herbicidal efficacy against ALOMY ([9]; 5 g/ha): 60
- Herbicidal efficacy against ALOMY ([9]; 80 g/ha): 90
- herbicidal activity ALOMY ([9]; 80 g/ha, Table C): 90%
- Herbicidal activity PHBPU [10]: 100%
- Herbicidal efficacy against ABUTH ([11]; dosage 20 g/ha): 100
- Herbicidal efficacy against ABUTH ([11]; dosage 80 g/ha): 100
- Herbicidal efficacy against ABUTH ([11]; dosage 320 g/ha): 100
- herbicidal activity ABUTH ([11]; dosage 320 g/ha): 100%
- Herbicidal efficacy against VIOTR ([12]; 5 g/ha): 100
- Herbicidal efficacy against VIOTR ([12]; 80 g/ha): 100
- herbicidal activity VIOTR ([12]; 80 g/ha): 100%
- Herbicidal efficacy against STEME ([13]; 5 g/ha): 90
- Herbicidal efficacy against STEME ([13]; 80 g/ha): 100
- Herbicidal activity STEME ([13]; 80 g/ha): 100%
- Herbicidal efficacy against AVEFA ([14]; 20 g/ha): 80
- Herbicidal efficacy against AVEFA ([14]; 80 g/ha): 100
- Herbicidal efficacy against AVEFA ([14]; 320 g/ha): 100
- herbicidal activity AVEFA [14]: 100%
- Herbicidal efficacy against SETVI ([15]; 5 g/ha): 90
- Herbicidal efficacy against SETVI ([15]; 80 g/ha): 90
- herbicidal activity SETVI ([15]; 80 g/ha): 90%
- Herbicidal efficacy against POLCO ([16]; dosage 20 g/ha): 30
- Herbicidal efficacy against POLCO ([16]; dosage 80 g/ha): 90
- Herbicidal efficacy against POLCO ([16]; dosage 320 g/ha): 90
- herbicidal activity ABUTH [17]: 80%
- Herbicidal efficacy against MATIN ([18]; dosage 20 g/ha): 80
- Herbicidal efficacy against MATIN ([18]; dosage 80 g/ha): 100
- Herbicidal efficacy against MATIN ([18]; dosage 320 g/ha): 100
- herbicidal activity MATIN ([18]; dosage 320 g/ha): 100%
- Herbicidal efficacy against ALOMY ([19]; 20 g/ha): 50
- Herbicidal efficacy against ALOMY ([19]; 80 g/ha): 90
- Herbicidal efficacy against ALOMY ([19]; 320 g/ha): 100
- herbicidal activity ALOMY [19]: 100%
- Herbicidal efficacy against SETVI ([20]; 20 g/ha): 70
- Herbicidal efficacy against SETVI ([20]; 80 g/ha): 100
- Herbicidal efficacy against SETVI ([20]; 320 g/ha): 100
- herbicidal activity SETVI [20]: 100%
